These results are taken from patent US20070243221A1, “ANTI-WRINKLE COMPOSITION” (L'OREAL, priority 2006, published 2007).

Each structure is given as a SMILES string.

This experiment deals with normal human fibroblasts. Nature of the experiment: Dermo-decontracting effect: spontaneous contraction of equivalent dermis (collagen matrix seeded with normal human fibroblasts). The class given is cell-based. The conditions noted are these: on average over the duration of the experiment (0, 4, 8 and 24 hours), equivalent dermis surface area. The source says:
The principle of this test consists in studying the effect of the test product on a model of equivalent dermis consisting of a collagen matrix seeded with normal human fibroblasts.
These conditions are intended to mimic in vitro the dermal contractile phenomena that take place during facial movements. The reason for this is that, under these conditions, the cells spontaneously exert tensile forces that induce a shrinkage of the collagen gel. […] Measurement of this area makes it possible to evaluate the relaxation effects of the substances placed in contact beforehand with the equivalent dermis.
Two series of attached equivalent dermides containing normal human fibroblasts are prepared: a control series without any treatment, and a series treated with the test compound (1 μM). The experiment is repeated three times.
The dermal equivalents are prepared as described in Asselineau et al., Exp. Cell. Res., 1985, 159, 536-539; Models in dermatology, 1987, vol. 3, pp. 1-7, in the following proportions:
The treated equivalent dermis differs from the control equivalent dermis in that 1 μM of the test compound has been added thereto. […]
To do this, a digital image is acquired for each treated or untreated equivalent dermis using a camera (CCD camera—Iris Sony DXC-107P) and the surface area is then calculated on each image by means of an image analysis system (Zeiss Axiovision 3.0). […]

`c1ccc(CCCNC2CCN(CCc3ccccc3)CC2)cc1` [compound 1, 1-(2-phenylethyl)-4-[N-(3-phenylpropyl)]aminopiperidine]: where the note is “tested at 1 μM”, the “reduces the contraction of fibroblasts, compared with the control” value worked out at 21%. As to `CC(NC1CCN(CCc2ccccc2)CC1)c1ccccc1` (centres unmarked) [compound 5, 1-(2-phenylethyl)-4-[N-(1-phenylethyl)]aminopiperidine], under “tested at 10 μM”, the “reduces the contraction of fibroblasts, compared with the control” value is recorded as 40%.
